From ChEMBL document CHEMBL1150090, “Agastaquinone, a new cytotoxic diterpenoid quinone from Agastache rugosa” (1995)
Converted amounts (≈) assume the structure as drawn.

How the values were obtained:
Type in all cases: functional
Details in all cases: read-out: ED50 (the source's name)
A549 = assay: Cytotoxicity against human A549 cells
SK-OV-3 = assay: Cytotoxicity against human SKOV3 cells
SK-MEL-2 = assay: Cytotoxicity against human SK-MEL-2 cells
XF498 = assay: Cytotoxicity against human XF498 cells
HCT-15 = assay: Cytotoxicity against human HCT15 cells

| SMILES | EC50 (A549) [µg/mL] | EC50 (SK-OV-3) [µg/mL] | EC50 (SK-MEL-2) [µg/mL] | EC50 (XF498) [µg/mL] | EC50 (HCT-15) [µg/mL] |
| --- | --- | --- | --- | --- | --- |
| COC1=C(C(C)C)C(=O)c2c(O)cc3c(c2C1=O)C=C/C(=N\O)C3(C)C | 9.1 (≈ 25.6 µM) | 18.7 (≈ 52.6 µM) | 11.8 (≈ 33.2 µM) | 8.5 (≈ 23.9 µM) | 7 (≈ 19.7 µM) |
| COC1=C(C(C)C)C(=O)c2c(O)cc3c(c2C1=O)C=CC(=O)C3(C)C [AGASTAQUINONE] | 6.8 (≈ 20 µM) | 12.8 (≈ 37.6 µM) | 4.1 (≈ 12 µM) | 1.8 (≈ 5.29 µM) | 5.2 (≈ 15.3 µM) |
